From patent US10758534B2 (Vertex Pharmaceuticals Incorporated, priority 2014, dated 2020)

What follows are compounds tested against T1, F508del (Homo sapiens, UniProt P13569, DEL508-508) (assay: Protocol 1: membrane potential optical assay (FLIPR III, voltage sensing dye), identification of potentiator compounds). Conditions: Table 3, compounds of Table 1.
T1 construct: expressed in transfected cells
Type: cell-based
Summary of the method: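 Read-out: change in voltage-sensing dye fluorescence (FLIPR III) as a measure of F508del conductance. Temperature-corrected (27° C, 24 hrs) NIH 3T3 cells expressing F508del are pretreated with potentiators, dye-loaded, then stimulated with forskolin under a chloride ion gradient using chloride-free gluconate bath.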

T1 sequence (P13569 with tags, fused parts or gaps DEL508-508): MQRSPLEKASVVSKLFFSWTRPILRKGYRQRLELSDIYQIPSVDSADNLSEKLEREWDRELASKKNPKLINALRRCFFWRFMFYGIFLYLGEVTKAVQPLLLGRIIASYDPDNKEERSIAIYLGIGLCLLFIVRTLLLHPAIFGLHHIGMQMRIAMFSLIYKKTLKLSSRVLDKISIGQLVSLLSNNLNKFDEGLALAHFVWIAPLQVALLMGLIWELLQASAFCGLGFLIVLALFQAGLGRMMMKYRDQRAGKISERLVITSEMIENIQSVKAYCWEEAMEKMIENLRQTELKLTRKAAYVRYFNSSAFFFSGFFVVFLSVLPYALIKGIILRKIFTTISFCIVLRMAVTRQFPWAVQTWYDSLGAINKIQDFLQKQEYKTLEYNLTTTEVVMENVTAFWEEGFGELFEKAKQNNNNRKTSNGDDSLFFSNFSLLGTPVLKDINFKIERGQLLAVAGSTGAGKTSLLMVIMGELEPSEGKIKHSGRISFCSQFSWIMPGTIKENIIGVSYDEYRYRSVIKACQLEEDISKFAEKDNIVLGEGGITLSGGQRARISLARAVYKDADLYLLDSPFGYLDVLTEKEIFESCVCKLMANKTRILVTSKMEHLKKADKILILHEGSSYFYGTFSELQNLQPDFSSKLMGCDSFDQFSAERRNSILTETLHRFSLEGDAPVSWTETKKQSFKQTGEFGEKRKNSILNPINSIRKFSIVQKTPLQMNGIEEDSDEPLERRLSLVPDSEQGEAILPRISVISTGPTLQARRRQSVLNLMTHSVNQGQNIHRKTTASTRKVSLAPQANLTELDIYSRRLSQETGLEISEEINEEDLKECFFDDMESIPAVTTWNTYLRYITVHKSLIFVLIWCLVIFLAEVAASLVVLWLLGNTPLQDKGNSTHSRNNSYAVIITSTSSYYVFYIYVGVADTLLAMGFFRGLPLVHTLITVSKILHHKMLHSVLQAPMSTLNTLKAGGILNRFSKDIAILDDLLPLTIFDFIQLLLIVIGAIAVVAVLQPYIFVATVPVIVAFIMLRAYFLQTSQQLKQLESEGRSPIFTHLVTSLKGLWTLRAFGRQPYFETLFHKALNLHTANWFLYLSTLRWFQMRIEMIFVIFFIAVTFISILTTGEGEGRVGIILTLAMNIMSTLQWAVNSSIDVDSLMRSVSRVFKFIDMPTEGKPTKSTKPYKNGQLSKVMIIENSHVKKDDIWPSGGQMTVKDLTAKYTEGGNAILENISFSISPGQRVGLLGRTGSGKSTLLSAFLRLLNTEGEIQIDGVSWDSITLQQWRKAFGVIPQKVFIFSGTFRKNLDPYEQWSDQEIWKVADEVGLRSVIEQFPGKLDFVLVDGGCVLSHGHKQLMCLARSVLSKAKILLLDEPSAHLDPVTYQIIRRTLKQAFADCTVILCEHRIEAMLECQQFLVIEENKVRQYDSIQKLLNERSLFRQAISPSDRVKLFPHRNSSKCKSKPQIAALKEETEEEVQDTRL

| SMILES | EC30 |
| --- | --- |
| CC(C)Oc1ccc(-c2ccc(C(=O)NS(=O)(=O)c3cccc(N)n3)c(N3CCC(Oc4ccccc4)C3)n2)cn1 (centres unmarked) [Compound 1092, N-[(6-amino-2-pyridyl)sulfonyl]-6-(6-isopropoxy-3-pyridyl)-2-(3-phenoxypyrrolidin-1-yl)pyridine-3-carboxamide] | ++ (“++” means between 3 uM and 10 uM) |
| Cc1cc(C)c(CN2CCc3ccccc3CC2C(=O)NS(=O)(=O)c2ccccn2)c(C)c1 (centres unmarked) [Compound 1093, N-(2-pyridylsulfonyl)-3-[(2,4,6-trimethylphenyl)methyl]-1,2,4,5-tetrahydro-3-benzazepine-4-carboxamide] | ++ (“++” means between 3 uM and 10 uM) |
| CC(C)COc1ccc(-c2ccc(C(=O)NS(=O)(=O)c3cccc(N)n3)c(N3CCC(C)CC3)n2)cc1 [Compound 1094, N-[(6-amino-2-pyridyl)sulfonyl]-6-(4-isobutoxyphenyl)-2-(4-methyl-1-piperidyl)pyridine-3-carboxamide] | +++ (“+++” means <3 uM) |
| CCOc1cc(F)cc(-c2ccc(C(=O)NS(=O)(=O)c3ccc[nH]c3=O)c(N3[C@H](C)CC[C@@H]3C)n2)c1 [Compound 1096, 2-[(2R,5S)-2,5-dimethylpyrrolidin-1-yl]-6-(3-ethoxy-5-fluoro-phenyl)-N-[(2-oxo-1H-pyridin-3-yl)sulfonyl]pyridine-3-carboxamide] | ++ (“++” means between 3 uM and 10 uM) |
| CC(C)COc1cc(F)cc(-c2ccc(C(=O)NS(=O)(=O)c3cccc(N)n3)c(N3CCC[C@H]3C(C)(C)C)n2)c1 [Compound 1097, N-[(6-amino-2-pyridyl)sulfonyl]-2-[(2S)-2-tert-butylpyrrolidin-1-yl]-6-(3-fluoro-5-isobutoxy-phenyl)pyridine-3-carboxamide] | +++ (“+++” means <3 uM) |
| CC(C)COc1cc(F)cc(-c2ccc(C(=O)NS(=O)(=O)c3cccc(N)n3)c(N3CCCC(C(C)C)C3)n2)c1 (centres unmarked) [Compound 1098, N-[(6-amino-2-pyridyl)sulfonyl]-6-(3-fluoro-5-isobutoxy-phenyl)-2-(3-isopropyl-1-piperidyl)pyridine-3-carboxamide] | +++ (“+++” means <3 uM) |
| CCOc1cc(F)cc(-c2ccc(C(=O)NS(=O)(=O)c3cccc(N)n3)c(N3CC(C)CC3(C)C)n2)c1 (centres unmarked) [Compound 1099, N-[(6-amino-2-pyridyl)sulfonyl]-6-(3-ethoxy-5-fluoro-phenyl)-2-(2,2,4-trimethylpyrrolidin-1-yl)pyridine-3-carboxamide] | +++ (“+++” means <3 uM) |
| CC1CN(c2nc(-c3ccc(Cl)cc3)ccc2C(=O)NS(=O)(=O)c2cccc(N)n2)C(C)(C)C1 (centres unmarked) [Compound 1100, N-[(6-amino-2-pyridyl)sulfonyl]-6-(4-chlorophenyl)-2-(2,2,4-trimethylpyrrolidin-1-yl)pyridine-3-carboxamide] | +++ (“+++” means <3 uM) |
| Cc1cc(C)c(CN2C(C(=O)NS(=O)(=O)c3cccc(N)n3)c3ccccc3C2(C)C)c(C)c1 (centres unmarked) [Compound 1101, N-[(6-amino-2-pyridyl)sulfonyl]-3,3-dimethyl-2-[(2,4,6-trimethylphenyl)methyl]isoindoline-1-carboxamide] | +++ (“+++” means <3 uM) |
| Cc1cc(F)ccc1Oc1nc(C(C)(C)C)ccc1C(=O)NS(=O)(=O)c1cccc(N)n1 [Compound 1104, N-[(6-amino-2-pyridyl)sulfonyl]-6-tert-butyl-2-(4-fluoro-2-methyl-phenoxy)pyridine-3-carboxamide] | +++ (“+++” means <3 uM) |
| Cc1cc(C)c(Cn2nc(C(C)(C)C)cc2C(=O)NS(=O)(=O)c2cccnc2N)c(C)c1 [Compound 1106, N-[(2-amino-3-pyridyl)sulfonyl]-5-tert-butyl-2-[(2,4,6-trimethylphenyl)methyl]pyrazole-3-carboxamide] | + (“+” means greater than 10 uM) |
| CC(C)Oc1ccc(-c2ccc(C(=O)NS(=O)(=O)c3cccc(N)n3)c(N3CC4CCCC4C3)n2)cn1 (centres unmarked) [Compound 1107, 2-(3,3a,4,5,6,6a-hexahydro-1H-cyclopenta[c]pyrrol-2-yl)-N-[(6-amino-2-pyridyl)sulfonyl]-6-(6-isopropoxy-3-pyridyl)pyridine-3-carboxamide] | +++ (“+++” means <3 uM) |
| CC(C)COc1cc(F)cc(-c2ccc(C(=O)NS(=O)(=O)c3cccc(N)n3)c(OC3CCCCC3C)n2)c1 (centres unmarked) [Compound 1108, N-[(6-amino-2-pyridyl)sulfonyl]-6-(3-fluoro-5-isobutoxy-phenyl)-2-(2-methylcyclohexoxy)pyridine-3-carboxamide] | +++ (“+++” means <3 uM) |
| CC(C)COc1ccc(F)c(-c2ccc(C(=O)NS(=O)(=O)c3cccc(N)n3)c(N3CCC(C)CC3)n2)c1 [Compound 1109, N-[(6-amino-2-pyridyl)sulfonyl]-6-(2-fluoro-5-isobutoxy-phenyl)-2-(4-methyl-1-piperidyl)pyridine-3-carboxamide] | ++ (“++” means between 3 uM and 10 uM) |
| CC(C)COc1cc(F)cc(-c2ccc(C(=O)NS(=O)(=O)c3ccn[nH]3)c(N3CCC(C)(C)CC3)n2)c1 [Compound 1110, 2-(4,4-dimethyl-1-piperidyl)-6-(3-fluoro-5-isobutoxy-phenyl)-N-(1H-pyrazol-5-ylsulfonyl)pyridine-3-carboxamide] | +++ (“+++” means <3 uM) |
| CC(C)Oc1ccc(-c2ccc(C(=O)NS(=O)(=O)c3cccc(N)n3)c(N3CCC(c4ccccc4)C3)n2)cn1 (centres unmarked) [Compound 1112, N-[(6-amino-2-pyridyl)sulfonyl]-6-(6-isopropoxy-3-pyridyl)-2-(3-phenylpyrrolidin-1-yl)pyridine-3-carboxamide] | ++ (“++” means between 3 uM and 10 uM) |
| COCC1CCCN(c2nc(-c3ccc(OC(C)C)nc3)ccc2C(=O)NS(=O)(=O)c2cccc(N)n2)C1 (centres unmarked) [Compound 1116, N-[(6-amino-2-pyridyl)sulfonyl]-6-(6-isopropoxy-3-pyridyl)-2-[3-(methoxymethyl)-1-piperidyl]pyridine-3-carboxamide] | ++ (“++” means between 3 uM and 10 uM) |
| CC(C)COc1cc(F)cc(-c2ccc(C(=O)NS(=O)(=O)c3cccc(N)n3)c(N(C)C3CC3)n2)c1 [Compound 1117, N-[(6-amino-2-pyridyl)sulfonyl]-2-[cyclopropyl(methyl)amino]-6-(3-fluoro-5-isobutoxy-phenyl)pyridine-3-carboxamide] | +++ (“+++” means <3 uM) |
| CC(C)COc1cc(F)cc(-c2ccc(C(=O)NS(=O)(=O)c3ccn[nH]3)c(N3CC(C)OC(C)C3)n2)c1 (centres unmarked) [Compound 1119, 2-(2,6-dimethylmorpholin-4-yl)-6-(3-fluoro-5-isobutoxy-phenyl)-N-(1H-pyrazol-5-ylsulfonyl)pyridine-3-carboxamide] | ++ (“++” means between 3 uM and 10 uM) |
| CC(C)COc1cc(F)cc(-c2ccc(C(=O)NS(=O)(=O)c3cccc(N)n3)c(N3CCC(C)C3(C)C)n2)c1 (centres unmarked) [Compound 1121, N-[(6-amino-2-pyridyl)sulfonyl]-6-(3-fluoro-5-isobutoxy-phenyl)-2-(2,2,3-trimethylpyrrolidin-1-yl)pyridine-3-carboxamide] | +++ (“+++” means <3 uM) |

More lines, now with the values ahead:

| EC30 | SMILES |
| --- | --- |
| ++ (“++” means between 3 uM and 10 uM) | Cc1cc(C)c(Oc2nc(-c3cccc(Cl)c3)ccc2C(=O)NS(=O)(=O)c2ccc[nH]c2=O)c(C)c1 [Compound 1095, 6-(3-chlorophenyl)-N-[(2-oxo-1H-pyridin-3-yl)sulfonyl]-2-(2,4,6-trimethylphenoxy)pyridine-3-carboxamide] |
| +++ (“+++” means <3 uM) | Cc1cc(C)c(Oc2nc(-c3ccccc3)cc(C)c2C(=O)NS(=O)(=O)c2cccc(N)n2)c(C)c1 [Compound 1102, N-[(6-amino-2-pyridyl)sulfonyl]-4-methyl-6-phenyl-2-(2,4,6-trimethylphenoxy)pyridine-3-carboxamide] |
| +++ (“+++” means <3 uM) | Cc1cc(C)c(Oc2nc(-c3cnn(CC(C)C)c3)ccc2C(=O)NS(=O)(=O)c2nccnc2N)c(C)c1 [Compound 1103, N-(3-aminopyrazin-2-yl)sulfonyl-6-(1-isobutylpyrazol-4-yl)-2-(2,4,6-trimethylphenoxy)pyridine-3-carboxamide] |
| + (“+” means greater than 10 uM) | Cc1cc(C)c(Oc2nc(-c3cccc(OCC4CC4)c3)ccc2C(=O)NS(=O)(=O)c2ccc[nH]c2=O)c(C)c1 [Compound 1105, 6-[3-(cyclopropylmethoxy)phenyl]-N-[(2-oxo-1H-pyridin-3-yl)sulfonyl]-2-(2,4,6-trimethylphenoxy)pyridine-3-carboxamide] |
| +++ (“+++” means <3 uM) | COc1ccc(C#N)cc1-c1ccc(C(=O)NS(=O)(=O)c2cccc(N)n2)c(Oc2c(C)cc(C)cc2C)n1 [Compound 1111, N-[(6-amino-2-pyridyl)sulfonyl]-6-(5-cyano-2-methoxy-phenyl)-2-(2,4,6-trimethylphenoxy)pyridine-3-carboxamide] |
| +++ (“+++” means <3 uM) | Cc1cc(C)c(Oc2nc(-c3ccc(OCc4ccccc4)cc3F)ccc2C(=O)NS(=O)(=O)c2cccc(N)n2)c(C)c1 [Compound 1113, N-[(6-amino-2-pyridyl)sulfonyl]-6-(4-benzyloxy-2-fluoro-phenyl)-2-(2,4,6-trimethylphenoxy)pyridine-3-carboxamide] |
| + (“+” means greater than 10 uM) | COc1cncc(-c2ccc(C(=O)NS(=O)(=O)c3cccc(N)n3)c(Oc3c(C)cc(C)cc3C)n2)c1 [Compound 1115, N-[(6-amino-2-pyridyl)sulfonyl]-6-(5-methoxy-3-pyridyl)-2-(2,4,6-trimethylphenoxy)pyridine-3-carboxamide] |
| +++ (“+++” means <3 uM) | CCc1cccc(-c2ccc(C(=O)NS(=O)(=O)c3cccc(N)n3)c(Oc3c(C)cc(C)cc3C)n2)c1 [Compound 1118, N-[(6-amino-2-pyridyl)sulfonyl]-6-(3-ethylphenyl)-2-(2,4,6-trimethylphenoxy)pyridine-3-carboxamide] |
| +++ (“+++” means <3 uM) | Cc1cc(C)c(Oc2nc(-c3ccccc3C)ccc2C(=O)NS(=O)(=O)c2cccc(N)n2)c(C)c1 [Compound 1120, N-[(6-amino-2-pyridyl)sulfonyl]-6-(o-tolyl)-2-(2,4,6-trimethylphenoxy)pyridine-3-carboxamide] |
